Reference: paper doi:10.1101/2023.12.04.569845, “Identification of 4-(6-((2-methoxyphenyl)amino)pyrazin-2-yl)benzoic acids as CSNK2A inhibitors with antiviral activity and improved selectivity over PIM3” (bioRxiv, 2023)
Where two headings read alike, the source gives them in different places.

Key:
Experiment in all cases: biochemical
Parameters in all cases: Thermal shift (DSF, SYPRO Orange) Tm shift of recombinant kinase domains at 10 uM compound
CHK2 = target: T1, CHK2 (Homo sapiens, UniProt O96017)
T1 construct: gene CHEK2
T1 sequence (O96017 whole entry): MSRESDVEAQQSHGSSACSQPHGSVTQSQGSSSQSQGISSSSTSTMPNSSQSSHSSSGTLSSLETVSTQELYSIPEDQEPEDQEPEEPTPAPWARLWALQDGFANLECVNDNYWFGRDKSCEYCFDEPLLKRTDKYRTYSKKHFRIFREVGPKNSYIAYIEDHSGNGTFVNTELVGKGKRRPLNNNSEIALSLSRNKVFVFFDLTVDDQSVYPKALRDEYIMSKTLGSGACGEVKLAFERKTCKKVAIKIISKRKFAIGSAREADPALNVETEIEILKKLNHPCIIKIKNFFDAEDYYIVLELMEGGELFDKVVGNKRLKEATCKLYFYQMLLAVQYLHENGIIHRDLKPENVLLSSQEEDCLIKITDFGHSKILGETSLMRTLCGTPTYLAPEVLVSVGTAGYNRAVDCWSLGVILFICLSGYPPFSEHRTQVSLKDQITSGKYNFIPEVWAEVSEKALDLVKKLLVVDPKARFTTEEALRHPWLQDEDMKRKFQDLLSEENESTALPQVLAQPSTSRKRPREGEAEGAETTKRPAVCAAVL

FGFR1 = FGFR1 (Homo sapiens, UniProt P11362)
Chain of FGFR1 (P11362 whole entry): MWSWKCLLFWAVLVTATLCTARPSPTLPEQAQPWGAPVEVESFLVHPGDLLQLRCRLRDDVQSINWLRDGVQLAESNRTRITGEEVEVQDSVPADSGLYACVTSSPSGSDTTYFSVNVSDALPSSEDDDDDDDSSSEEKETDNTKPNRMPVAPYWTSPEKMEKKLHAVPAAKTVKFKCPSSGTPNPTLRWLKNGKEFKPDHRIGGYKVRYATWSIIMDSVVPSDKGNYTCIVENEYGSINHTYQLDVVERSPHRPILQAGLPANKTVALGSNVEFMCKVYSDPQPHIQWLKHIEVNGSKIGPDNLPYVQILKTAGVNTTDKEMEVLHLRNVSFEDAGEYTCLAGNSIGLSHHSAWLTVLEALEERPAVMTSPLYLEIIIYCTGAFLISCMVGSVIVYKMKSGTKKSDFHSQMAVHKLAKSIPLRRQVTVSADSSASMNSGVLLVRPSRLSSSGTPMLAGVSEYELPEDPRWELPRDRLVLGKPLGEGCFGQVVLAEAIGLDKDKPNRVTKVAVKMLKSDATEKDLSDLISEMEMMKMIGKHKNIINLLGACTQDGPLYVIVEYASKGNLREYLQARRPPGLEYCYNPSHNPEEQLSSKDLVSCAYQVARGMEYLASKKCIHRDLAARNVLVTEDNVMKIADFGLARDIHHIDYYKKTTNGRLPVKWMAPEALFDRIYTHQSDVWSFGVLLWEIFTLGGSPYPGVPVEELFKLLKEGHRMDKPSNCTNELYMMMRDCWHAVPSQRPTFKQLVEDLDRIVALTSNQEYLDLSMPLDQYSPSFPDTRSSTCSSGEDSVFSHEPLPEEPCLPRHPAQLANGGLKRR

NEK1 = target: T2, NEK1 (Homo sapiens, UniProt Q96PY6)
T2 sequence (Q96PY6 1-1258): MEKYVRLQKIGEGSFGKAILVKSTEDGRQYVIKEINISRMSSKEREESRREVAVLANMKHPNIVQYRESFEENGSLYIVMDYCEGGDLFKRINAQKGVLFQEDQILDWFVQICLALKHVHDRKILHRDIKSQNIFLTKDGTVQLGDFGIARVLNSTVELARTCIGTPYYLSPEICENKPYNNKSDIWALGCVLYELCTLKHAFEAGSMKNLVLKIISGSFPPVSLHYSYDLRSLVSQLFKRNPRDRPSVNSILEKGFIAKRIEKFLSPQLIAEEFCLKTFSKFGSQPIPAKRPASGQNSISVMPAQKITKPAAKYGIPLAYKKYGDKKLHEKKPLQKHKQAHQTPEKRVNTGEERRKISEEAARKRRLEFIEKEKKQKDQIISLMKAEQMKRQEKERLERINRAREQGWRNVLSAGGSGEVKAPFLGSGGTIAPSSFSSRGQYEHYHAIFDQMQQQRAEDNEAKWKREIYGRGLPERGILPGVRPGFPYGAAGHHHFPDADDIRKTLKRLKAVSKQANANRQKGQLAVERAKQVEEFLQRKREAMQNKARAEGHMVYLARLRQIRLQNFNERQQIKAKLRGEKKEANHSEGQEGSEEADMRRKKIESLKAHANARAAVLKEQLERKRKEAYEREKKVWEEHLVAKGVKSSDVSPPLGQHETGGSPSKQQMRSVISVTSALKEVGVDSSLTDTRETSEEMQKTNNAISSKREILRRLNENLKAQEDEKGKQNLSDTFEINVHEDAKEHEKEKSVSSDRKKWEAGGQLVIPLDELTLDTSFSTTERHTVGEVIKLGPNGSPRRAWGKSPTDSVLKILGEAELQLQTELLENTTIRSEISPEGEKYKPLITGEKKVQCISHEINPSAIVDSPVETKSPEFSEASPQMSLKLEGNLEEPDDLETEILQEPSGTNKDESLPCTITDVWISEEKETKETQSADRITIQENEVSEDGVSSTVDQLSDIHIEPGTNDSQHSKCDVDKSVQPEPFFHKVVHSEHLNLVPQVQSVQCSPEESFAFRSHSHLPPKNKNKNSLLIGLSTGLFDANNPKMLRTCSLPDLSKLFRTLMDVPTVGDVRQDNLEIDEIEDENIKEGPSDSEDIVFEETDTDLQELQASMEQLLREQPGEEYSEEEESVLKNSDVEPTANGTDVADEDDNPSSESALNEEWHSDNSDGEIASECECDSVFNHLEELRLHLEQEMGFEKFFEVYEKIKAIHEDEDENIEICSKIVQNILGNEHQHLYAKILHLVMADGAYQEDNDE

SLK = SLK (Homo sapiens, UniProt Q9H2G2)
Chain of SLK (Q9H2G2 whole entry): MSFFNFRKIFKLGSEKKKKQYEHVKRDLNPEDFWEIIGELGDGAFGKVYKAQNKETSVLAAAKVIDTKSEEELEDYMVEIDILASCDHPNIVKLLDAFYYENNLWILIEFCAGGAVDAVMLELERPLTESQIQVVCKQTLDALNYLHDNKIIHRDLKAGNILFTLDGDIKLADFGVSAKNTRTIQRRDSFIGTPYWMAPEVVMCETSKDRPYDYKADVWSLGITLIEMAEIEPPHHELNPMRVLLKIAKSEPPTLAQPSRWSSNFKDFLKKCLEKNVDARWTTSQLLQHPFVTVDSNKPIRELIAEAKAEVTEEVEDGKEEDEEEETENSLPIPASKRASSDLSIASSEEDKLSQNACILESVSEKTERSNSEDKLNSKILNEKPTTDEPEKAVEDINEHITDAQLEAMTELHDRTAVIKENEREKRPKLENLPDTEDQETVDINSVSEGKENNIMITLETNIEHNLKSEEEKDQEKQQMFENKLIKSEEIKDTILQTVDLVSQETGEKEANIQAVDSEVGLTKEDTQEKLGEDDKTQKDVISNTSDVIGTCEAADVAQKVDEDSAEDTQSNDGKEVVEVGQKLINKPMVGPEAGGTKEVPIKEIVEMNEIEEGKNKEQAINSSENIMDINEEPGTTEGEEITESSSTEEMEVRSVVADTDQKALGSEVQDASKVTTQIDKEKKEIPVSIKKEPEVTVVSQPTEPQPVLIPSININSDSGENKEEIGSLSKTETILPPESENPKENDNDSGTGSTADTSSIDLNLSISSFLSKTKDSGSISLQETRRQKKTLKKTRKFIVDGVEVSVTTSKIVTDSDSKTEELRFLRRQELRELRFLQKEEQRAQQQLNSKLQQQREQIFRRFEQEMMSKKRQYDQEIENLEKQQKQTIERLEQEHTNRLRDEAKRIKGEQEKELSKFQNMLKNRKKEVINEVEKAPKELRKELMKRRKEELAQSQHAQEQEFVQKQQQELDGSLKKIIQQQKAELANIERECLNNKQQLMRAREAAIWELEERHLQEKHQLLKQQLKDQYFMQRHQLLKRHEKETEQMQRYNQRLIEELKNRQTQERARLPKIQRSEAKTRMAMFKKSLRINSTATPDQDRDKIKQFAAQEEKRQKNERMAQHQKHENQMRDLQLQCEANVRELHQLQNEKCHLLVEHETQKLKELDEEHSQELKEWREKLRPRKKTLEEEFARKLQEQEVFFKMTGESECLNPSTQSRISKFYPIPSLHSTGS

ULK1 = target: T3, ULK1 (Homo sapiens, UniProt O75385)
T3 sequence (O75385 1-1050): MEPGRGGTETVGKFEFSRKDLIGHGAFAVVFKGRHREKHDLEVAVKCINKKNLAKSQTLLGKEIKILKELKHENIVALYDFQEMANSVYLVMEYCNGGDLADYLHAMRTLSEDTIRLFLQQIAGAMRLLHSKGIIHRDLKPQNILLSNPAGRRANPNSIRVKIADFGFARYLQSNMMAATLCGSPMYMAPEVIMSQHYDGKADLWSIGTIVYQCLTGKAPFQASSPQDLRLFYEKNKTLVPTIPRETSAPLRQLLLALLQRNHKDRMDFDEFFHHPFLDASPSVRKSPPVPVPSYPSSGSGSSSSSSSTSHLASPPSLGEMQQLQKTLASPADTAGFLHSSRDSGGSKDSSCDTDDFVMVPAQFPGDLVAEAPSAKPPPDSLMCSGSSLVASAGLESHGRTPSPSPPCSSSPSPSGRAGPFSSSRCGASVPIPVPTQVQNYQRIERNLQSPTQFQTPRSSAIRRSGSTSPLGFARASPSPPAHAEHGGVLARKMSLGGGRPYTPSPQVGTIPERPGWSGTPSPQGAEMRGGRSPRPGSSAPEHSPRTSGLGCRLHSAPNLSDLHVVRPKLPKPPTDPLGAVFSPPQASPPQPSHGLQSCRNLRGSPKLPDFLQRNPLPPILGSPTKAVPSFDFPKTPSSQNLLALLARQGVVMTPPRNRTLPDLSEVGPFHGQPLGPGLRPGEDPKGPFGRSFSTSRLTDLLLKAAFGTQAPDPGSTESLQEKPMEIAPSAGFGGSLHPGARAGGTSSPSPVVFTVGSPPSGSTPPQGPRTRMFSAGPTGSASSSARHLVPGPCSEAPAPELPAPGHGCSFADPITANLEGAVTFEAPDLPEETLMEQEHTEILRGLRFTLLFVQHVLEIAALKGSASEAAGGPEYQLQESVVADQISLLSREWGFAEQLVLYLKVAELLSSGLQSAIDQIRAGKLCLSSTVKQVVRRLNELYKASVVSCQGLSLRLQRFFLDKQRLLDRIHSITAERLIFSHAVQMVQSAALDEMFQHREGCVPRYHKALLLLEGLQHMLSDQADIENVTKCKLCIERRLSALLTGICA

In the case of `CC(C)Nc1ccc2cnn(-c3cncc(-c4ccc(C(=O)O)cc4)n3)c2c1` [compound 2, 2], the ΔTm at 10 µM (CHK2; read-out: 2) is reported as 6 °C, the ΔTm at 10 µM (FGFR1; read-out: 2) is reported as 1 °C and the ΔTm at 10 µM (NEK1; read-out: 2) is reported as 1 °C. The ΔTm at 10 µM (SLK; read-out: 2) was 3 °C and the ΔTm at 10 µM (ULK1; read-out: 2) was 3 °C.

In the case of `COc1ccc(OC(C)C)cc1Nc1cncc(-c2ccc(C(=O)O)cc2)n1` [7c], the ΔTm at 10 µM (CHK2; read-out: 7c) is reported as 3 °C, the ΔTm at 10 µM (FGFR1; read-out: 7c) is reported as 0 °C and the ΔTm at 10 µM (NEK1; read-out: 7c) is reported as 0 °C. The ΔTm at 10 µM (SLK; read-out: 7c) was 1 °C and the ΔTm at 10 µM (ULK1; read-out: 7c) was 1 °C.

Molecule `CC(C)Oc1ccc2ccn(-c3cncc(-c4ccc(C(=O)O)cc4)n3)c2c1` [6c] has a ΔTm at 10 µM (CHK2; read-out: 6c) of 4 °C, a ΔTm at 10 µM (FGFR1; read-out: 6c) of 0 °C and a ΔTm at 10 µM (NEK1; read-out: 6c) of 0 °C. The ΔTm at 10 µM (SLK; read-out: 6c) was 2 °C and the ΔTm at 10 µM (ULK1; read-out: 6c) was 2 °C.
